Values joined by “and” are separate entries in the source; they are usually repeats but may differ in a detail not shown here. Equal entries are not always repeated. Marks after values point to notes of the source that are not given here.
Key:
[1] = test system: co-culture model with Caco-2 and HT29-MTX; experiment: 3D intestinal permeability assay (co-culture, HPLC-MS of basolateral samples); format: in vitro ADME; settings: for Permeability (%): 3D intestinal model, compound of kiwiberry leaf extract; for permeation in the 3D intestinal model: time not stated; for permeation (detection after the 3D intestinal permeation assay): aglycones, result in words
Method: The intestinal permeability was carried out in a co-culture model with Caco-2 and HT29-MTX [40]. The extract was added to the apical side of the model. A sample from the basolateral side was collected at different timepoints (0, 15, 30, 45, 60, 90, 120, 150, 180, and 240 min). Samples were analyzed by HPLC-MS assay (Section 3.5). The TEER of the model was evaluated before, during and at the end of the permeability assay using an EVOM Epithelial Volthometer Instrument equipped with a chopstick electrode (World Precision Instruments, Sarasota, FL, USA).
The phenolic compounds that permeated the intestinal 3D model were identified and quantified according to Silva et al.. The samples were diluted 10 times with methanol-water (50:50) and centrifuged at 13,300× […] for 15 min. The supernatant was then transferred to a vial for the LC-MS analysis. The standard calibration curves were: • Chlorogenic acid titration curve: y = 198.01x + 20.138 (R^2 = 1) • Rutin titration curve: y = 58.564x + 41.752 (R^2 = 0.9998)
Regarding the multiple reaction monitoring (MRM), the values were: • Chlorogenic acid: 353.5 > 191.2 • Rutin: 609.4 > 301.3 • Coumaroyl quinic acid: 337.3 > 191.3

[2] = Serum biochemical analysis (TC, HDL-C, LDL-C, TG) after 7 days oral treatment; format: in vivo, Wistar rats; settings: 50 mg/kg bw oral once daily 7 days
Method: (§1) The homogenate supernatants were analyzed by biochemical assays.
Serum was used to analyze the TC, HDL-C, and LDL-C using commercial kits from Sigma-Aldrich (Steinheim, Germany). TG levels were estimated in the blood serum through a commercial kit from Abcam (Cambridge, MA, USA).

[3] = test system: kidney and liver tissues; experiment: Histopathological analysis of kidney and liver (hematoxylin-eosin); settings: oral gavage once daily 7 days; extract 50 and 75 mg/kg bw, vitamin C 50 mg/kg bw
Method: Young male Wistar rats of 5–6 weeks of age (140–207 g) were acquired from the Jackson Laboratory (Bar Harbor, ME, USA) and acclimatized in polypropylene cages to the environmental conditions (12 h dark/light cycle, controlled temperature (21 ± 2 °C), relative humidity (55 ± 10%) and fed ad libitum with standard pellet diet and water for 1 week before the experiment).
All groups were treated once daily for 7 days by oral gavage after a fasting period of 4 h. The body weight of each animal was recorded twice a week during the experimental period. Blood samples were collected from tail vein and a glucometer (Accu-Chek, Roche® Diabetes Care, Inc., Mississauga, QC, Canada) was used to measure the glucose levels.
After 7 days, the animals were sacrificed by pentobarbital overdose (50 mg/kg bw). The organs (liver and kidneys) were removed, and the blood was collected by cardiac puncture. Serum was separated by centrifugation (20,000× g, 15 min, 4 °C) and stored at −80 °C for biochemical analyses [42]. The organs were dissected from each animal and subsequently mixed with 50 mM potassium phosphate, pH 7.0, and centrifuged (20,000× g, 15 min, 4 °C), according to the kit manufacturer’s instructions. The homogenate supernatants were analyzed by biochemical assays.
The tissue samples (liver and kidney) were preserved in 10% formalin. […]

[4] = test system: GSH-Px; experiment: In vivo antioxidant parameter: GSH-Px activity in kidney, liver, serum; set-up: species or system Wistar rats; settings: 50 mg/kg bw oral once daily 7 days
Method: as §1
(§2) The antioxidant enzyme activities, namely SOD, CAT, and GSH-Px, were evaluated in the homogenate supernatants from organs through commercial enzymatic kits from Sigma-Aldrich (Steinheim, Germany). The lipid peroxidation was determined through the determination of MDA levels using a commercial kit (Merck, Darmstadt, Germany).

[5] = test system: SOD; experiment: In vivo antioxidant parameter: SOD activity in kidney, liver, serum; set-up: species or system Wistar rats; settings: 50 mg/kg bw oral once daily 7 days
Method: as §1, §2

[6] = test system: CAT; experiment: In vivo antioxidant parameter: CAT activity in kidney, liver, serum; set-up: species or system Wistar rats; settings: 50 mg/kg bw oral once daily 7 days
Method: as §1, §2

[7] = test system: MDA; experiment: Lipid peroxidation: MDA levels in kidney, liver, serum; format: in vivo, Wistar rats; settings: 50 mg/kg bw oral once daily 7 days
Method: as §1, §2

Permeability (%) ([1]; 15 min) | Permeability (%) ([1]; 30 min) | Permeability (%) ([1]; 45 min) | Permeability (%) ([1]; 60 min) | Permeability (%) ([1]; 90 min) | Permeability (%) ([1]; 120 min) | Permeability (%) ([1]; 180 min) | Permeability (%) ([1]; 240 min) | permeation in the 3D intestinal model [1] | permeation (detection after the 3D intestinal permeation assay) [1] | SMILES | other results
<LOD | 1.79 ± 0.09 | <LOD | <LOD | <LOD | <LOD | <LOD | 2.49 |  |  | O=C(/C=C/c1ccc(O)c(O)c1)O[C@@H]1C[C@](O)(C(=O)O)C[C@@H](O)[C@H]1O [Chlorogenic acid] | Permeability (%) ([1]; 240 min, listed as Chlorogenic Acid): 2.49 ± 0.13%
1.04 ± 0.05% | 18.81 ± 0.94 | 7.99 ± 0.39% | 13.50 ± 0.68% | 19.74 ± 0.99% | 14.60 ± 0.73% | 24.32 ± 1.22% | 34.23 | higher than 25% |  | O=C(/C=C/c1ccc(O)cc1)O[C@@H]1C[C@](O)(C(=O)O)C[C@@H](O)[C@H]1O [Coumaroyl quinic acid] | Permeability (%) ([1]; 240 min, listed as Coumaroyl Quinic Acid): 34.23 ± 1.71%
6.67 ± 0.33% | 10.89 ± 0.54 | 17.01 ± 0.85% | 14.61 ± 0.73% | 14.56 ± 0.73% | 18.50 ± 0.93% | 18.30 ± 0.92% | 25.40 ± 1.27 | higher than 25% |  | C[C@@H]1O[C@@H](OC[C@H]2O[C@@H](Oc3c(-c4ccc(O)c(O)c4)oc4cc(O)cc(O)c4c3=O)[C@H](O)[C@@H](O)[C@@H]2O)[C@H](O)[C@H](O)[C@H]1O [Rutin] | Permeability (%) ([1]; 15 min, listed as rutin): 6.67%; Permeability (%) ([1]; 240 min, listed as rutin): 25.40%
 |  |  |  |  |  |  |  |  | absence of permeation | O=c1c(O)c(-c2ccc(O)cc2)oc2cc(O)cc(O)c12 [kaempferol] | 
 |  |  |  |  |  |  |  |  | absence of permeation | O=c1c(O)c(-c2ccc(O)c(O)c2)oc2cc(O)cc(O)c12 [quercetin] | 
 |  |  |  |  |  |  |  |  |  | O=C1O[C@H]([C@@H](O)CO)C(O)=C1O [vitamin C] | HDL-C [2]: 155.09 ± 37.71 mg/dL; LDL-C [2]: 76.24 ± 16.52 mg/dL; TG [2]: 229.76 ± 33.54 ^a mg/dL; TC ([2]; 50 mg/kg): 79.81 mg/dL and 79.81 ± 15.11 mg/dL; histopathological examination of kidneys [3]: did not lead to morphological alterations; GSH-Px, Kidneys [4]: 136.66 ± 19.62 ^b units/g protein; GSH-Px, Liver [4]: 71.34 ± 10.94 ^b,c units/g protein; GSH-Px, Serum [4]: 20.16 ± 5.29 ^b units/mL protein; SOD, Kidneys [5]: 123.13 ± 19.27 ^b,c units/g protein; SOD, Liver [5]: 83.71 ± 6.06 ^b units/g protein; SOD, Serum [5]: 79.20 ± 5.76 ^b units/mL protein; CAT, Kidneys [6]: 427,496 ± 78,015 ^b nmol/min/g protein; CAT, Liver [6]: 3,762,450 ± 434,242 ^c nmol/min/g protein; CAT, Serum [6]: 34,911 ± 7975 ^b nmol/min/mL protein; MDA, Kidneys [7]: 196,748 ± 31,125 ^a nmol/g protein; MDA, Liver [7]: 145,827 ± 10,063 ^b nmol/g protein; MDA, Serum [7]: 746.79 ± 123.55 ^b nmol/mL protein

From PMC9692619, “Insights into the 3D In Vitro Permeability and In Vivo Antioxidant Protective Effects of Kiwiberry Leaf Extract: A Step Forward to Human Nutraceutical Use” (International Journal of Molecular Sciences, 2022)
